Test results reported in patent US20230018737A1, “AN IN VITRO KIT AND A METHOD FOR D[…] TRANSPLANTS AND/OR AUTOIMMUNE DISEASES AND/OR TUMOR DISEASES AND/OR VA[…] A MESSENGER-SUBSTANCE-CONTAINING SUPERNATANT, CELL-[…], AND A COMBINATION, FOR USE IN D[…] TRANSPLANTS AND/OR AUTOIMMUNE DISEASES AND/OR TUMOR DISEASES AND/OR VACCINATIONS” (HOT Screen GmbH, priority 2019, published 2023).
Where “and” joins values, the source holds several entries; their conditions need not be identical. Equal values may be shown once.

Tests used:
[1] = tested on: T cells; format: cell-based, human
[2] = tested on: whole blood cultures; format: cell-based, human

## tetanus toxoid [TeTo]
[1]
  IL-2: 12.1 pg/mL
  IL-2 Conc: 12.1 pg/mL
  IL-2 SI (stimulation index): 314
[2]
  IL-10: 8.47 pg/mL and 8.24 pg/mL
